Data taken from patent US11331375B2, “Compositions and methods for regulating leukocyte adhesion” (University of Virginia Patent Foundation, priority 2015, dated 2022).

Legend:
[1] = test system: paired mesenteric arterioles; assay: Ex vivo vascular perfusion ATP release assay, mesenteric arterioles; assay type: cell-based, mouse; details: TNFα 50 ng/mL
Procedure: For isolated blood vessel experiments, 2nd order venules or arterioles were dissected from the mouse mesentery circulation and cannulated on glass micropipettes to access the vessel lumen. […] Vessels were then perfused with MOPS PSS containing 300 μM ARL 67156 +/− pharmacological inhibitors and incubated for an additional 20 minutes prior to perfusion with MOPS PSS containing recombinant murine TNFα (R&D Systems). Aliquots of the lumenal perfusate were collected every 5 minutes for a 25-minute period and the ATP concentration was quantified by bioluminescence as described above. Data are expressed as mean±SEM (n=4 independent experiments).

[2] = test system: Src Family Kinases (SFK); assay: Western blot of SFK activation in isolated mesenteric venules; assay type: cell-based, mouse; details: mesenteric venules perfused with TNFα 50 ng/mL 30 minutes
Procedure: Following stimulation with TNFα (in vitro: 10 ng/mL; ex vivo: 50 ng/mL), confluent endothelial cell monolayers or isolated mesenteric venules were homogenized in ice cold Triton extraction buffer (50 mM Tris-HCL, 150 mM NaCl , 5 mM EDTA, 1% deoxycholate, 1% NP-40 and 1% Triton-X100 in phosphate buffered saline and pH adjusted to 7.4) containing protease and phosphatase inhibitors. Cell/Tissue lysates were incubated with rotation at 4° C. for 20 minutes to solubilize proteins, followed by centrifugation for 5 minutes at 13,000× g to pellet cell debris. Protein concentration was quantified using the BCA method. 15-20 μg of total protein was subjected to SDS gel electrophoresis using 4-12% Bis-Tris gels (Invitrogen) and transferred to nitrocellulose membranes for immunoblotting. Membranes were blocked for 1 hr at room temperature with LiCOR blocking solution, then incubated overnight at 4° C. with primary antibodies against pY416SFKs, (BD Biosciences; 1:1000) pY198Panx1 (Alpha Diagnostic Intl (ADI); 1:1000) and GAPDH (Sigma; 1:10,000) or an antibody against the intracellular loop of Panx1 (Panx1-IL) (ADI; 1:1000) (normalization controls). Membranes were then washed and incubated with LiCOR secondary antibodies (1:10,000) and visualized and quantitated using LiCOR Odyssey. […] Data are expressed as mean±SEM (n=3 independent experiments).

[3] = molecular target: T1, Panx1 channels in HUVEC (Homo sapiens, UniProt Q96RD7); assay: YO-PRO-1 dye uptake assay; assay type: cell-based; details: TNFα 30 minutes, dose dependent
T1 construct: Primary human umbilical vein endothelial cells (HUVEC) were purchased from Cell Applications; PromoCell 200K-05; C-12231; host or cells: HUVEC, HSaVEC (primary human venous endothelial cells)
T1 sequence (Q96RD7 whole entry): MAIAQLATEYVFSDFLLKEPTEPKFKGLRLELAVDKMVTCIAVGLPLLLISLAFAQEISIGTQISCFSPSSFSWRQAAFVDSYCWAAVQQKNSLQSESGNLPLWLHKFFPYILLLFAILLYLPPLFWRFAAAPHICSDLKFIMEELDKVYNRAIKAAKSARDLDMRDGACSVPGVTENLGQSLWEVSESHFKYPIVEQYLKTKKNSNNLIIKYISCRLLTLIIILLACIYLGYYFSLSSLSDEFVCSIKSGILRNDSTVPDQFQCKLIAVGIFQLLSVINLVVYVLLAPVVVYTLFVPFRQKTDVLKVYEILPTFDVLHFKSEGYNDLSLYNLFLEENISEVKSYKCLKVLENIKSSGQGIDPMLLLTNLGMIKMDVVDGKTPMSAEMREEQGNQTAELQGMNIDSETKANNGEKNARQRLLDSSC
Procedure: HUVECs were cultured on poly-L-lysine coated coverslips and grown to confluence in EGM. Cells were washed three times with 1× PBS and incubated in fresh EGM for 30 minutes prior to stimulation. To stimulate YO-PRO-1 dye uptake, YO-PRO-1 (1 μM) was added to the media and EC monolayers were treated with TNFα at a range of concentrations (0.1 ng/mL-100 ng/mL) for 30 minutes. At the end of the stimulation, cells were washed 3× with 1× PBS and immediately fixed in 4% PFA. Coverslips were then mounted on microscope slides with DAPI ProlongGold mounting agent and visualized on an Olympus IX81 laser scanning confocal microscope. Dye uptake was quantified as the intensity of YO-PRO-1 fluorescence over time using ImageJ software. For time course analysis, YO-PRO-1 was added to the culture media at various time points after TNFα stimulation and incubated to the 30-minute time point. Data are expressed as mean±SEM (n=3 independent experiments).

[4] = test system: THP-1 monocyte adhesion to HUVEC; assay: Static adhesion assay, THP-1 monocytes on HUVEC; assay type: cell-based, human; details: HUVEC monolayers activated with TNFα for 30 minutes
Procedure: HUVECs were seeded on gelatin-coated glass coverslips in 6-well plates and grown to confluence. On the day of the experiment, cells were washed 2× with 1× PBS and incubated for 30 minutes in basal EGM supplemented with 1% BSA in the presence or absence of pharmacological inhibitors. During this incubation period, human THP-1 monocytes were loaded with Calcein-AM (Invitrogen; 5 μg/mL) for 30 minutes at 37° C. Cells were then pelleted by brief centrifugation and excess calcein was removed by washing THP-1 cells 3 times in 1× PBS. Next, HUVECs were stimulated with TNFα (10 ng/mL) for 30 minutes. Following EC activation, calcein-loaded THP-1 monocytes were added to EC monolayers and incubated for 20 minutes at 37° C. to allow THP-1 to contact ECs. Monolayers were then washed 3× with 1× PBS and fixed in ice cold 4% PFA. Following fixation, coverslips were removed from the 6-well plates and mounted on glass microscope slides with Prolong Gold anti-fade mountant with DAPI (Life Technologies). Fluorescent micrographs were obtained at 10×magnification and the number of adherent THP-1 monocytes/ECs was quantified in 5 randomized regions/slide. Data are expressed as mean±SEM (n=3 independent experiments).

Substance: TNFα
- ATP accumulation in the perfusate on cytokine perfusion [1]: absent
- SFK activation [2]: increasing SFK activation
- intracellular YO-PRO-1 dye accumulation [3]: significant increase
- increase of THP-1 monocyte adhesion [4]: ~4 fold
